Measurements taken from ChEMBL document CHEMBL1201862, “PubChem BioAssay data set” (2004).
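Where inhibition never reached the appropriate level, the endpoint shown equals the highest concentration tested. Otherwise, values were interpolated linearly from a five-concentration, 48-hour dose response in 96-well plates. The concentration for 50% growth inhibition is given as GI50.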 Calls of active or inactive are those of the source. Cut-off read from the data, not from the text of the source: active = GI50 up to about 1.1 µM and inactive = higher.

Columns and labels:
Assay in all cases: DTP human tumour cell line panel, 48 h
[1] = system: 786-0
[2] = system: A498
[3] = system: BT-549
[4] = system: DU-145
[5] = system: HL-60
[6] = system: KM12
[7] = system: MOLT-4
[8] = system: NCI-H23
[9] = system: NCI-H460
[10] = system: OVCAR-8
[11] = system: RXF 393
[12] = system: SF-295
[13] = system: SK-MEL-2
[14] = system: SK-MEL-5
[15] = system: SN12C
[16] = system: SNB-19
[17] = system: SR
[18] = system: SW-620
[19] = system: UO-31
[20] = system: T47D

Structure (SMILES)	GI50 [1]	GI50 [2]	GI50 [3]	GI50 [4]	GI50 [5]	GI50 [6]	GI50 [7]	GI50 [8]	GI50 [9]	GI50 [10]	GI50 [11]	GI50 [12]	GI50 [13]	GI50 [14]	GI50 [15]	GI50 [16]	GI50 [17]	GI50 [18]	GI50 [19]	GI50 [20]
O=C1/C(=C/c2ccc(Cl)c(Cl)c2)CNC/C1=C\c1ccc(Cl)c(Cl)c1	2.39 µM (inactive)	18.3 µM (inactive)	27.9 µM (inactive)	49 µM (inactive)	8.39 µM (inactive)	6.76 µM (inactive)	5.4 µM (inactive)	8.51 µM (inactive)	10.3 µM (inactive)	3.92 µM (inactive)	14 µM (inactive)	9.2 µM (inactive)	23.3 µM (inactive)	36.5 µM (inactive)	5.08 µM (inactive)	1.46 µM (inactive)	3.96 µM (inactive)	1.38 µM (inactive)	17.5 µM (inactive)	
O=c1s[s+]([O-])c2ccccc12 (configuration not stated)	> 100 µM (inactive)	> 100 µM (inactive)	> 100 µM (inactive)	> 100 µM (inactive)	46.9 µM (inactive)	> 100 µM (inactive)	> 100 µM (inactive)	> 100 µM (inactive)	46.8 µM (inactive)	> 100 µM (inactive)		> 100 µM (inactive)	> 100 µM (inactive)	> 100 µM (inactive)	> 100 µM (inactive)	> 100 µM (inactive)	> 100 µM (inactive)	> 100 µM (inactive)	> 100 µM (inactive)	
COc1ccc2c(c1O)[C@@]13CCCC=C1[C@@H](C2)[N+](C)(C)CC3	> 100 µM (inactive)		46.7 µM (inactive)	> 100 µM (inactive)	56.4 µM (inactive)	> 100 µM (inactive)		> 100 µM (inactive)	> 100 µM (inactive)	> 100 µM (inactive)	> 100 µM (inactive)	> 100 µM (inactive)	> 100 µM (inactive)	91.4 µM (inactive)	> 100 µM (inactive)	> 100 µM (inactive)		> 100 µM (inactive)	> 100 µM (inactive)	> 100 µM (inactive)
COc1cc(/C=C2\C(=O)N(c3ccc(Cl)cc3)C(c3ccccc3)S2(=O)=O)cc(OC)c1OC (configuration not stated)	39.4 µM (inactive)	> 45.5 µM (inactive)	14.3 µM (inactive)	> 100 µM (inactive)	5.04 µM (inactive)	3.72 µM (inactive)	26.9 µM (inactive)	6.4 µM (inactive)	3.95 µM (inactive)	93.1 µM (inactive)	22.4 µM (inactive)	11.9 µM (inactive)	9.77 µM (inactive)	1.05 µM (active)	> 25.8 µM (inactive)	20 µM (inactive)		32.2 µM (inactive)	3.48 µM (inactive)	2.77 µM (inactive)
N#CC1C(=O)NC2=C(CCOc3c2ccc2ccccc32)C1c1ccc(F)cc1 (configuration not stated)	17.7 µM (inactive)	19.7 µM (inactive)	60 µM (inactive)	29.1 µM (inactive)	> 100 µM (inactive)	67.5 µM (inactive)	37.6 µM (inactive)	23.4 µM (inactive)	29.9 µM (inactive)	33.3 µM (inactive)	15 µM (inactive)	20.4 µM (inactive)	29.8 µM (inactive)	21.5 µM (inactive)	10.8 µM (inactive)	20 µM (inactive)		31 µM (inactive)	12.1 µM (inactive)	27.4 µM (inactive)
O=C1N/C(=N/N=C/C(O)C(O)C(O)C(O)CO)N/C1=C\c1cccs1 (configuration not stated)	> 100 µM (inactive)	73.1 µM (inactive)	> 100 µM (inactive)	> 100 µM (inactive)	> 100 µM (inactive)	> 100 µM (inactive)	> 100 µM (inactive)	> 100 µM (inactive)	> 100 µM (inactive)	> 100 µM (inactive)	> 100 µM (inactive)	> 100 µM (inactive)	> 100 µM (inactive)	> 100 µM (inactive)	> 100 µM (inactive)	> 100 µM (inactive)		> 100 µM (inactive)		93.8 µM (inactive)
C=C(C)C(=O)O[C@H]1CC2=CC(CC(C)=C[C@H]3OC(=O)C(=C)C13)OC2=O (some centres not stated)	9.08 µM (inactive)	35.8 µM (inactive)	16.3 µM (inactive)	15.5 µM (inactive)	3.65 µM (inactive)	20.3 µM (inactive)	19.8 µM (inactive)	39.3 µM (inactive)	31.1 µM (inactive)	35.8 µM (inactive)		> 100 µM (inactive)	22.1 µM (inactive)	68.2 µM (inactive)	22.1 µM (inactive)	> 100 µM (inactive)		11.8 µM (inactive)	> 10 µM (inactive)	11.2 µM (inactive)
Cc1cccc2nc3c(=O)[nH]c(=O)nc-3n(C)c12	99.3 µM (inactive)		84.9 µM (inactive)	> 100 µM (inactive)	15.7 µM (inactive)	31.9 µM (inactive)	43 µM (inactive)	39.1 µM (inactive)	48.1 µM (inactive)	52 µM (inactive)	> 100 µM (inactive)	92.9 µM (inactive)	48.8 µM (inactive)	29.6 µM (inactive)	> 100 µM (inactive)	71.3 µM (inactive)		39.9 µM (inactive)		53.3 µM (inactive)
C[C@H]1[C@H]2[C@H]3CC[C@@H]4[C@@]5(C)CC[C@H](O)C(C)(C)[C@@H]5CC[C@@]4(C)[C@]3(C)C[C@H](O)[C@@]2(C)C[C@H]2O[C@]21C	19.5 µM (inactive)	21.4 µM (inactive)	20.4 µM (inactive)	15.5 µM (inactive)	44 µM (inactive)	19.8 µM (inactive)	27.5 µM (inactive)	18.2 µM (inactive)	18.9 µM (inactive)	19.6 µM (inactive)	16.7 µM (inactive)	15.6 µM (inactive)	19 µM (inactive)	16.6 µM (inactive)	16.9 µM (inactive)	20.6 µM (inactive)		24 µM (inactive)		16 µM (inactive)
c1cc(-c2ccc(-c3ccc(C4=NC5CCCCC5N4)cc3)o2)ccc1C1=NC2CCCCC2N1 (configuration not stated)	1.49 µM (inactive)	2.86 µM (inactive)	2.11 µM (inactive)	1.6 µM (inactive)	2.31 µM (inactive)	1.46 µM (inactive)	1.8 µM (inactive)	1.58 µM (inactive)	1.84 µM (inactive)	1.79 µM (inactive)	1.95 µM (inactive)	1.84 µM (inactive)	1.82 µM (inactive)	1.57 µM (inactive)	1.47 µM (inactive)	1.47 µM (inactive)		2.56 µM (inactive)	2.99 µM (inactive)	1.98 µM (inactive)
COc1cc(C2SC(=N)Nc3c2c(C)nn3C(=O)c2ccccc2O)ccc1O (configuration not stated)	> 2.33 µM (inactive)	4.51 µM (inactive)	> 2.63 µM (inactive)	1.69 µM (inactive)	> 2.32 µM (inactive)	> 2.13 µM (inactive)	> 2.28 µM (inactive)	> 2.3 µM (inactive)	0.317 µM (active)	> 2.33 µM (inactive)	1.52 µM (inactive)	1.28 µM (inactive)	> 2.86 µM (inactive)	2.75 µM (inactive)	> 2.64 µM (inactive)	> 2.39 µM (inactive)		> 4.71 µM (inactive)	9.31 µM (inactive)	0.971 µM (active)
CC1(C)CCC2=C(O1)/C(=N\Nc1ccccc1)c1ccccc1C2=O	15.8 µM (inactive)	20 µM (inactive)	35.4 µM (inactive)	29.8 µM (inactive)	35.8 µM (inactive)	32.8 µM (inactive)	34 µM (inactive)	34.8 µM (inactive)	23.2 µM (inactive)	36.2 µM (inactive)	16.6 µM (inactive)	24.9 µM (inactive)	16 µM (inactive)	32.1 µM (inactive)	20.3 µM (inactive)	40.4 µM (inactive)		> 100 µM (inactive)	17.8 µM (inactive)	18.8 µM (inactive)
O=[N+]([O-])/C(C(Cl)=C(Cl)Cl)=C(\NCc1ccccc1)Sc1ccccc1	35.1 µM (inactive)	25.9 µM (inactive)	17.3 µM (inactive)	36.6 µM (inactive)		16.5 µM (inactive)	> 100 µM (inactive)	20.5 µM (inactive)	37 µM (inactive)	16.9 µM (inactive)		20.6 µM (inactive)	25.1 µM (inactive)		35.2 µM (inactive)	41.2 µM (inactive)		18.4 µM (inactive)	17.2 µM (inactive)	30.8 µM (inactive)
CCOC(=O)c1[nH]c2ccccc2c1C(=O)C[C@H](NC(=O)C(F)(F)F)C(=O)OC	> 100 µM (inactive)	> 100 µM (inactive)	> 100 µM (inactive)	> 100 µM (inactive)	> 100 µM (inactive)	> 100 µM (inactive)	> 100 µM (inactive)	> 100 µM (inactive)	29.3 µM (inactive)	> 100 µM (inactive)		> 100 µM (inactive)	> 100 µM (inactive)	> 100 µM (inactive)	> 100 µM (inactive)	> 100 µM (inactive)	> 100 µM (inactive)	> 100 µM (inactive)	75.3 µM (inactive)	
N#C/C(=C\c1cc(Br)c(O)c(Br)c1)c1ccccn1	49.5 µM (inactive)		30.2 µM (inactive)	> 100 µM (inactive)	> 100 µM (inactive)	39.1 µM (inactive)	32.5 µM (inactive)	44 µM (inactive)	48.6 µM (inactive)	94.8 µM (inactive)	91.4 µM (inactive)	16 µM (inactive)	47.9 µM (inactive)	41 µM (inactive)	46.7 µM (inactive)	46.1 µM (inactive)	> 100 µM (inactive)	63.5 µM (inactive)	35.9 µM (inactive)	
